Legend:
House Fly = test: Adult House Fly Assay (AhsF), feeding on compound-soaked dental wicks, 24 h mortality; parameters: species or system Musca domestica; settings: adult house flies
Protocol: Adult Stable or House Fly Assay (ASF, AhsF). This assay is conducted essentially as described in White, W. H., S. M. Bauer, X. Zhao et al., Comparison of in vitro and in vivo ectoparasiticide activity of an experimental benzimidazole-carbamate with permethrin and amitraz, J. Med. Entomol. 42, 207-211 (2005); and White, W. H., C. M. McCoy, J. A. Meyer et al., Knockdown and mortality comparisons among spinosad-, imidacloprid-, and methomyl-containing baits against susceptible Musca domestica (Diptera: Muscidae) under laboratory conditions, J. Econ. Entomol. 100, 155-163 (2007).
Test material is formulated in DMSO at 10 mM. Doubling dilutions in like solvent are made to yield 10 testing levels. Materials are diluted in either bovine serum (stable flies) or 5% glucose solution (house flies) to obtain desired exposure concentrations from 200-0.39 μM. Approximately 3 ml of diluted test material is placed into a test tube (n=3 per test level) and a dental wick is used to absorb fluid. One dental wick is placed into a small weigh boat inside of a 100 mm Petri dish. Approximately 10 mixed-sex adult flies are anesthetized using carbon dioxide and counted into each dish. Dishes are incubated at 27° C. and 50-70% relative humidity. Flies recover from anesthesia and feed on compound-soaked dental wicks. After 24 h, live/dead flies are enumerated. Nonlinear regression is used to model dose-mortality relationship and obtain relative potency (LD50) data compared to contemporaneous controls (solvent-only or permethrin).

[1] = tested on: adult cat flea, Ctenocephalides felis; test: Oral administration per os to dogs, experimental adult cat flea infestation, comb counts; assay type: in vivo
Protocol: (§1) Oral administration per os to dogs. Given the above data, investigation into oral efficacy in dogs was begun. The investigation was conducted to evaluate 1) efficacy for a point dose of 30 mg/kg, against experimental, concurrent infestations with the adult cat flea, Ctenocephalides felis; adult stage American dog ticks, Dermacentor variabilis; and adult stage kennel ticks, Rhipicephalus sanguineus; 2) plasma concentrations of the 30 mg/kg treated dogs; and 3) efficacy for point dosages of either 50 mg/kg or 100 mg/kg, against experimental infestations with adult stage kennel ticks, R. sanguineus.
Sixteen dogs were selected for two groups of eight dogs (4 male: 4 female) per group. One treatment group received spinetoram, while the other group was left untreated. The dogs were housed individually in concrete-floored chain-link kennels both inside and outside. During the study period the dogs were fed a dry dog chow, except for the day of treatment (day 0) when they received wet canned food. The dogs had ad libitum access to water.
The first group on day 0 received one or more gelatin capsules containing spinetoram powder by mouth, in the amount of 30 mg/kg, while the untreated group received placebo. For the evaluation of the higher doses (50 and 100 mg/kg) for efficacy against R. sanguineus, dogs from the 30 mg/kg group were re-dosed at the higher levels approximately 2.5 months after the low dose administration, once the flea efficacy data had been collected.
Each dog was experimentally infested with about 100 adult fleas, and 50 ticks of each species on test days—1,5,12,19, 28, 35, and 42, with additional flea infestations conducted on days 49 and 56. Knockdown assessments against both ticks and fleas were conducted 24 hours after dosing. All subsequent counts were conducted 48 hours after infestation. For the higher doses, the dogs were infested with around 50 R. sanguineus ticks one day before re-dosing and again 5 days post re-dosing, with comb counts conducted approximately 24 hours thereafter. Knockdown activity (Day 1) was determined using 24 hr post-dosing comb counts. For all post-treatment residual tick counts, the comb count occurred 48 hours post infestation. Blood samples were drawn on days 14, 21, 28, and 35 to determine concentration of spinetoram in plasma.

[2] = tested on: adult stage American dog ticks, Dermacentor variabilis; test: Oral administration per os to dogs, experimental American dog tick infestation; assay type: in vivo; settings: at the doses tested (30 mg/kg)
Protocol: as §1
Sixteen dogs were selected for two groups of eight dogs (4 male: 4 female) per group. One treatment group received spinetoram, while the other group was left untreated. The dogs were housed individually in concrete-floored chain-link kennels both inside and outside. During the study period the dogs were fed a dry dog chow, except for the day of treatment (day 0) when they received wet canned food. The dogs had ad libitum access to water. […]
Each dog was experimentally infested with about 100 adult fleas, and 50 ticks of each species on test days—1,5,12,19, 28, 35, and 42, with additional flea infestations conducted on days 49 and 56. […] Knockdown activity (Day 1) was determined using 24 hr post-dosing comb counts. […]

With Spinetoram the EC50 (House Fly; 24 h, 5% glucose solution, read-out: Potency (24 h EC50 μM)) was 2.18 µM, the “Spinetoram/Spinosad Potency Ratio” value (House Fly; 24 h EC50) was 5.5 and the “geometric mean percent flea reduction, Day 7” value ([1]; oral 30 mg/kg, Day 7) was 100%. For the same substance, the “geometric mean percent flea reduction, Day 14” value ([1]; oral 30 mg/kg, Day 14) was 100%, the “geometric mean percent flea reduction, Day 21” value ([1]; oral 30 mg/kg, Day 21) was 99.5% and the “geometric mean percent flea reduction, Day 30” value ([1]; oral 30 mg/kg, Day 30) was 100%. The “geometric mean percent flea reduction, Day 37” value ([1]; oral 30 mg/kg, Day 37) was 98.9%, the “geometric mean percent flea reduction, Day 44” value ([1]; oral 30 mg/kg, Day 44) was 99.7% and the “geometric mean percent flea reduction, Day 51” value ([1]; oral 30 mg/kg, Day 51) was 98.2%. The “geometric mean percent flea reduction, Day 58” value ([1]; oral 30 mg/kg, Day 58) was 96.9%, the “geometric mean percent flea reduction, Knockdown” value ([1]; oral 30 mg/kg, Knockdown) was 99.7% and the residual control ([1]; oral point dose 30 mg/kg, extends beyond 8 weeks) was greater than 97%. For the same substance, the activity against ticks [2] was “did not demonstrate statistically significant activity”.
